Active and inactive are the calls of the source. The calls are words filed in the database; no cut-off is given here.
Columns and labels:
[1] = Inhibition of LPS-induced TNFalpha production in human monocyte THP1 cells; assay type: functional, cell-based; settings: THP-1
[2] = target: T1, Dual specificity mitogen-activated protein kinase kinase 1 (Homo sapiens, UniProt Q02750); assay: Inhibition of ERK phosphorylation in THP1 cells; assay type: functional, cell-based; settings: THP-1
[3] = target: T1, Dual specificity mitogen-activated protein kinase kinase 1; assay: Inhibition of human MEK1 activation by bRaf in RAF-MEK-ERK coupling assay
[4] = Inhibition of human MEK1 activation by COT in COT-MEK-ERK coupling assay
[5] = target: T1, Dual specificity mitogen-activated protein kinase kinase 1; assay: Inhibition of activated human MEK1 in MEK-ERK coupling assay at 10 uM
[6] = target: T1, Dual specificity mitogen-activated protein kinase kinase 1; assay: Inhibition of activated human MEK1 in MEK-ERK coupling assay

T1 sequence (Q02750 whole entry): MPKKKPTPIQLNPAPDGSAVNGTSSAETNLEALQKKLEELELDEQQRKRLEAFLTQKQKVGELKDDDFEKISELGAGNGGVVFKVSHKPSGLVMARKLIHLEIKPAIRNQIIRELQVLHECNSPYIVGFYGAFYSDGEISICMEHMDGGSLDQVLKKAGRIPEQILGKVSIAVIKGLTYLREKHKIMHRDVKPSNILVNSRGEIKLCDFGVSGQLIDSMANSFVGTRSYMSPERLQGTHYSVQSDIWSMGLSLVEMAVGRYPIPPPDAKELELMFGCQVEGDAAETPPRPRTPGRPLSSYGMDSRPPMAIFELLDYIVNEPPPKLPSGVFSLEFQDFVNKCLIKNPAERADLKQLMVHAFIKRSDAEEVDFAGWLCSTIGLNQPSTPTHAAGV

| SMILES | IC50 [1] | Activity [2] | IC50 [3] | IC50 [4] | Activity [5] | IC50 [6] |
| --- | --- | --- | --- | --- | --- | --- |
| Cc1c(Cc2ccc(F)cc2)c(=O)oc2cc(OC(=O)N(C)C)ccc12 | 200 nM | Active | 300 nM | 300 nM | inactive |  |
| Cc1c(Cc2ccccc2)c(=O)oc2cc(OC(=O)N(C)C)c(Cl)cc12 | 90 nM | Active |  | 70 nM |  | 10000 nM |
| Cc1c(Cc2ccccc2)c(=O)oc2cc(OC(=O)C3CC3)ccc12 |  |  | 200 nM | 200 nM | inactive |  |

— ChEMBL document CHEMBL1141961, “Identification of coumarin derivatives as a novel class of allosteric MEK1 inhibitors” (Bioorg Med Chem Lett, 2005)
